{"source": "patent US5576305A", "about": "“Intercellular adhesion mediators” (Cytel Corporation, priority 1995, dated 1996)", "key": {"rolling leukocytes": {"test_system": "rolling leukocytes", "assay": "leukocyte rolling (histamine-induced recruitment of rolling leukocytes)", "type": "in vivo, rat", "conditions": "FIG. 15, in words"}, "selectin": {"test_system": "selectin", "assay": "inhibitory effect of oligosaccharides on selectin-mediated adhesion", "type": "cell-based", "conditions": "in words"}, "recombinant E-selectin": {"test_system": "recombinant E-selectin", "assay": "inhibition of binding of HL-60 cells to recombinant E-selectin", "type": "cell-based", "conditions": "FIG. 13, concentration dependence, in words"}}}
{"molecule": "CCO[C@@H]1O[C@H](CO)[C@H](O)[C@H](O[C@@H]2O[C@H](CO)[C@@H](O[C@@H]3O[C@H](CO)[C@H](O)[C@H](O[C@]4(C(=O)O)C[C@H](O)[C@@H](NC(C)=O)[C@H]([C@H](O)[C@H](O)CO)O4)[C@H]3O)[C@H](O)[C@H]2NC(C)=O)[C@H]1O", "note": "[SLN, reference compound]", "values": [{"measurement": "recruitment of rolling leukocytes / leukocyte rolling", "setting": "rolling leukocytes", "result": "had no effect"}]}
{"molecule": "NeuAcα2,3Galβ1,4(Fucα1,3)GlcNAcβ1,3Galβ--", "values": [{"measurement": "inhibitory effect relative to the tetrasaccharide", "setting": "selectin", "result": "substantially more inhibitory effect than the tetrasaccharide"}]}
{"molecule": "CCOC1OC(CO)C(O)C(OC2OC(CO)C(OC3OC(CO)C(O)C(OC4(C(=O)O)CC(O)C(NC(C)=O)C(C(O)C(O)CO)O4)C3O)C(OC3OC(C)C(O)C(O)C3O)C2NC(C)=O)C1O", "note": "[Z, Ethyl (sodium (5-acetamido-3,5-dideoxy-α-D-glycero-D-galacto-2-nonulopyanosylonate))-(2-3)-O-(β-D-galactopyranosyl)-(1-4)-O-((α-L-fucopyranosyl)-(1-3))-O-(2-acetamido-2-deoxy-β-D-glucopyranosyl)-(1-3)-O-β-D-galactopyranoside]", "values": [{"measurement": "recruitment of rolling leukocytes / leukocyte rolling", "setting": "rolling leukocytes", "result": "inhibited leukocyte rolling"}, {"measurement": "inhibition of binding of HL-60 cells to recombinant E-selectin", "setting": "recombinant E-selectin", "result": "inhibition of binding of HL-60 cells to recombinant E-selectin in a concentration dependent manner"}]}
